Consider 6 molecules from PMC9287337 (Scientific Reports, 2022).

Test [1] concerns C2C12 cells. Briefly: RealTime-Glo MT cell viability assay. Format: cell-based, mouse. The settings on record: C2C12, 24 h, Supplemental Fig. S3. The procedure:
To first determine how these novel compounds effect the health of C2C12 cells and to establish the range of subtoxic concentrations for future studies, cell viability assays were carried out. Serum-starved C2C12 cells were exposed to increasing concentrations (0.01–1000 µM) of SY-LB-35 and SY-LB-57 for 24 h. Exposure to Triton X-100 (125 µM) is toxic to cells and was used as a negative control for cell viability. Following the 24-h exposure period, the MT Cell viability substrate was added to the cultures. Only viable cells can reduce the substrate and, thereby, generate a luminescent signal. Any decrease in luminescence was considered an indication of cell death or toxicity.
C2C12 cells (100 µL) were seeded in a 96-well plate at 5 × 10^5 cells/mL and incubated overnight in complete growth media to achieve 80% confluency followed by serum-starvation for 16–18 h.
(§1) Next, reagents from the RealTime-Glo™ MT Cell Viability Assay Kit (Promega, Madison, WI, USA) were diluted in SS medium and used according to manufacturer’s protocol. Cellular luminescence was measured using the FilterMax F5 Multi-mode Microplate Reader (Molecular Devices, San Jose, CA, USA). Data from three independent experiments with individual experiments carried out in triplicate was determined and reported as a percentage of control.

Test [2] has as its system type I BMP receptor-dependent p-Smad. Description: Western blot of p-Smad in presence or absence of Dorsomorphin. Format: cell-based, mouse. The note with it: 10 µM inhibitor, compounds 1 µM, 30 min. The procedure:
Total whole cell lysates were prepared and used for Western blot analysis of Smad phosphorylation using anti-p-Smad antibodies.
C2C12 cells (3 mL) were seeded into 35 mm dishes at 7.5 × 10^4 cells/mL in complete growth medium, incubated to reach 80% confluence and serum-starved for 16–18 h. […] Thereafter, the cultures were washed with ice-cold 1X TBS for 2 min. Lysis Buffer (Cell Signaling Technology, Danvers, MA, USA) supplemented with 1 mM PMSF (phenylmethylsulphonyl fluoride) was added to the cultures and whole cell lysates were prepared.
Laemmli sample buffer (4X) was added to the whole cell lysates (20 µg) to a final concentration of 1X and heated at 100 °C for 5 min. The samples were immediately cooled on ice for 5 min and centrifuged at 9500 rpm for 2 min at RT. The samples and the Precision Plus Protein Standard (5 µL; Bio-Rad, Hercules, CA, USA) were loaded on 12% SDS polyacrylamide gels. Protein was separated using the Bio-Rad Mini Protean II Gel Electrophoresis System at 135 V. Meanwhile, 0.2 µm nitrocellulose membranes were pre-incubated in cold 1X Transfer Buffer (10 mM Tris/2.5 mM glycine/20% methanol) for at least 30 min. Next, the separated proteins were transferred at 100 V onto the pre-equilibrated nitrocellulose membranes for 1 h in Transfer Buffer, followed by blocking in 5% BSA/0.1% Tween 20/1X TBS for 30 min. The membranes were incubated overnight at 4 °C with the desired primary rabbit monoclonal antibody (p-Smad1/5(S463/465)/9(S465/467), Smad1 (D5907) XP®, p-Akt (Ser473) (D9E) XP®, or Akt (pan) (C67E7), p-SAPK/JNK (Thr183/Tyr185), SAPK/JNK, β-actin (Cell Signaling Technologies, Danvers, MA, USA)) or rabbit polyclonal antibody (phospho-PI3 Kinase p85 (Tyr458)/p55 (Tyr199) antibody (Cell Signaling Technologies, Danvers, MA, USA), p-p38 MAPK, p38 MAPK, p-ERK1, ERK1/2) (Abclonal, Woburn, MA, USA)) in Antibody Dilution Buffer (1% BSA/0.1% Tween 20/1X TBS) and then washed with 1X TBST (0.1% Tween 20/1X TBS) three times for 15 min. HRP-conjugated Goat Anti-Rabbit IgG secondary antibody (Santa Cruz Biotechnology, Inc., Dallas, TX, USA) in Antibody Dilution Buffer was added to the membranes for 1 h at RT followed by three 15-min washes with 1X TBST. Finally, the blots were developed using SuperSignal ™ West Femto HRP Substrate solutions (Thermo Scientific, Rockford, IL, USA) and analysed using the Omega Lum™ G Imaging System (San Francisco, CA, USA). Quantification of chemiluminescent signals was carried out using ImageJ (Image Processing and Analysis in Java 1.8.0_112).
In general terms: In western blotting, separated proteins are transferred to a membrane and probed.

In test [3] the test system is C2C12 cells. Briefly: Cell viability assay in presence or absence of Dorsomorphin. Format: cell-based, mouse. The note with it: 10 µM inhibitor, 24 h. The method, then:
To resolve whether the SY-LB-35 or SY-LB-57 compound requires type I BMP receptor activity for the induction of cell viability in C2C12 cells, cell viability assays were carried out in the presence or absence of 10 µM DM.
C2C12 cells (100 µL) were seeded in a 96-well plate at 5 × 10^5 cells/mL and incubated overnight in complete growth media to achieve 80% confluency followed by serum-starvation for 16–18 h. […] For BMP receptor inhibition, cell viability assays were carried out in presence or absence of Dorsomorphin (DM; 10 µM; Sigma Aldrich, St. Louis, MO, USA), a non-selective inhibitor of type I BMP receptor activity.
as §1

The test system of test [4] is p-Smad. On the set-up: method as in PMID 30602563. The note with it: 30-min stimulation assays; cited from earlier work.

Turning to BMP9: recombinant BMP family member, in test [1], the “Effect on cell viability” value is listed as “Increases in cell viability”. In the case of `c1cc(-c2cnn3cc(-c4ccc(OCCN5CCCCC5)cc4)cnc23)ccn1` [DM, Dorsomorphin, reference compound], the “Effect of inhibitor on p-Smad increase induced by SY-LB-35 and SY-LB-57” value in test [2] is “completely prevented the increase in p-Smad levels”. Also, the “Effect of inhibitor on cell viability increases stimulated by SY-LB-35 and SY-LB-57” value in test [3] is “complete inhibition of the cell viability increases”. Turning to `Brc1ccc(CSc2nc3ccccc3o2)cc1` [sb4, reference compound], the “Increase in p-Smad levels over control” value in test [4] is recorded as “twofold”.

B1: BMP4: BMP ligand used as comparator in the literature study (protein, UniProt P12644 293-408, looked up)
Bone morphogenetic protein 4: SPKHHSQRARKKNKNCRRHSLYVDFSDVGWNDWIVAPPGYQAFYCHGDCPFPLADHLNSTNHAIVQTLVNSVNSSIPKACCVPTELSAISMLYLDEYDKVVLKNYQEMVVEGCGCR
For the molecule B1, in test [4], the “Increase in p-Smad levels over control” value is listed as 11 fold.

B2: BMP7: recombinant BMP family member (protein, UniProt P18075 293-431, looked up)
Bone morphogenetic protein 7: STGSKQRSQNRSKTPKNQEALRMANVAENSSSDQRQACKKHELYVSFRDLGWQDWIIAPEGYAAYYCEGECAFPLNSYMNATNHAIVQTLVHFINPETVPKPCCAPTQLNAISVLYFDDSSNVILKKYRNMVVRACGCH
Take B2: the “Effect on cell viability” value in test [1] is given as “Increases in cell viability”.

B3: BMP6: recombinant BMP family member (protein, UniProt P22004 375-513, looked up)
Bone morphogenetic protein 6: SASSRRRQQSRNRSTQSQDVARVSSASDYNSSELKTACRKHELYVSFQDLGWQDWIIAPKGYAANYCDGECSFPLNAHMNATNHAIVQTLVHLMNPEYVPKPCCAPTKLNAISVLYFDDNSNVILKKYRNMVVRACGCH
B3: in test [1], the “Effect on cell viability” value is reported as “Increases in cell viability”.
